{
  "source": "patent US20250066727A1",
  "about": "“COMPOSITIONS AND METHODS FOR CULTURING STEM CELLS” (Beijing TheraXyte BioScience Co. Ltd., priority 2021, published 2025)",
  "type_in_all_cases": "cell-based",
  "key": {"adult KSCs [1]": {"test_system": "adult KSCs", "assay": "Coating matrix function assay: attachment and spreading of adult KSCs in KSFX-free basal medium", "description": "Coating Matrix Preparation—Coating matrix such as Collagen I, Poly-D-Lysine (PDL), Matrigel, rh-Fibronectin, and rh-Laminin 521 were prepared according to the instructions of the manufacture (Table 1). Briefly, for one well of the 6-well cell culture plate, 1 mL of the working solution was added to the surface of the well and the plate was incubated at the recommended condition. Then the well was washed once with 1 mL of PBS and ready to be used.\nThe keratinocyte stem cells (KSCs) were isolated from donated foreskin or fetal skin tissue. Briefly, the skin tissue was cleaned up with 70% ethanol and washed several times with PBS containing antibiotics. The tissue in PBS was collected, trimmed away any fat and loose fascia, and cut into strips approximately 0.5 cm×1.5 cm. The tissue was submerged in dispase and treated overnight at 4° C. The epidermis was then separated from the dermis and washed with PBS several times. All the epidermis was collected into one tube containing the TrypLE and incubated for 30 minutes at 37° C. Enough PBS was added to neutralize the TrypLE and the solution was pipetted up and down to suspend the cells. The cell suspension was passed through a 70 μm cell strainer, and then the cells were pelleted by centrifugation at 300 g for 10 minutes. The cell pellet was resuspended in culture medium and the concentration of the viable cells/mL was determined. 2×10^4 viable epidermal cells/cm^2 was plated on culture flask treated with coating matrix, and then the flask was incubated in a 37° C., 95% air/5% CO2 saturated humidity chamber. The culture medium was changed every 48 hours. Once the cultures were ˜80% confluent, the cells were subcultured and/or cryopreserved using a freezing medium. For subculture, cells were washed once by PBS then treated with TrypLE for no more than 6 min at 37° C. PBS was added to neutralize the TrypLE, and then the tube was centrifuged at 300 g for 10 min. New flasks were seeded at 1-2×10^4 cells/cm^2.\nThe function of each coating matrix listed in Table 1 was tested for the attachment and spreading of adult KSCs. […]"}, "adult KSCs [2]": {"test_system": "adult KSCs", "assay": "Long-term proliferation of adult KSCs on coating matrix in KSFX-free basal medium", "details": "5 passages", "description": "(§1) For long-term proliferation assay, cells were continuously passaged on the 6-well cell culture plate. For each passage, 2×10^5 viable cells were plated and then cultured for about 5 days, when the cells were ˜90% confluent, cells were passaged and the cell number as well as the viability with the cell counter were recorded. Microscopy was performed with Eclipse TS100 (Nikon).\nFurther, the proliferation functions of FN, COLI, and LN was also tested in the KSFX-free basal medium. Adult KSCs were continuously passaged and the population doubling (PD) curves were calculated."}, "adult KSCs [3]": {"test_system": "adult KSCs", "assay": "Growth supplement function assay (EdU / p63)", "details": "24 hours; for concentration that could promote adult KSCs proliferation (EdU/p63 ratio): added to KSFX-free basal medium", "description": "For the EdU (5-ethynyl-2′-deoxyuridine) assay, 5×10^3 cells were plated to a well of the 96-well cell culture plate and cultured for overnight. On the second day, the cells were treated with 10 μM EdU for 3 hours at 37° C. The cells were washed with PBS and then fixed with 4% formaldehyde for 30 min at RT. The cells were washed with PBS and then permeabilized with 0.1% Triton for 20 min at RT. The cells were washed with PBS and then labeled with freshly prepared EdU labeling buffer containing 5 μM of Sulfo-Cyanine 3 azide, 4 mM of Copper(II) sulfate pentahydrate, 2 mg/mL of Sodium L-ascorbate in PBS for 30 min at RT. The cells were washed with PBS and labeled with Hoechst if needed. Finally, the plate was scanned and analyzed by Celllnsight CX5 HCA reader.\nCells were washed with PBS once and then fixed with 4% formaldehyde for 30 min at room temperature (RT). The cells were washed with PBS and then permeabilized with 0.1% Triton for 20 min at RT The cells were washed with PBS and then blocked with 3% BSA for 1 hr at RT. Then the cells were incubated with primary antibodies such as anti-KRT14, or anti-p63 overnight at 4° C. The cells were washed with PBS and labeled with the secondary antibody such as Goat anti-Mouse Alexa Fluor 488, Goat anti-Rabbit Alexa Fluor 647, and Hoechst if needed. Finally, the plate was scanned and analyzed by CellInsight CX5 HCA reader. Microscopy was captured with Confocal Microscope A1 HD25.\nDifferent concentrations of each factor were added to the KSFX-free basal medium and the adult KSCs were cultured for 24 hours. Then cells were labeled with EdU as well as the KSCs marker p63. The ratio of EdU/p63 indicates the proliferation rate of KSCs, and the p63 count indicates the total cell number which is a result of cell proliferation and cell death."}, "adult KSCs [4]": {"test_system": "adult KSCs", "assay": "Calcium concentration function assay in KSFX-free basal medium", "description": "as §1\nThe effect of calcium concentrations in the KSFX-free basal medium on the proliferation and differentiation of adult KSCs were tested. Cells were cultured in different concentrations of calcium, including 0 mM, 0.05 mM, 0.15 mM, 0.5 mM, and 1.5 mM for 10 passages. As shown in FIG. 8 and FIG. 9A, withdraw of calcium led to the growth stop of adult KSCs after 3 passages."}, "[5]": {"details": "1.5 mM calcium, KSFX-free basal medium"}},
  "data": [
    {"compound": "COLI: Collagen I coating matrix, extracted from rat tail, 50 μg/mL", "values": [
      {"measurement": "attachment and spreading of adult KSCs", "setting": "adult KSCs [1]; after 30 min of culturing, bright-field microscopy", "value": "attached to the plate and spread with a flatten morphology"},
      {"measurement": "attachment and spreading of adult KSCs", "setting": "adult KSCs [1]; after 2 hours of culturing", "value": "fully spread"},
      {"measurement": "attachment/spreading function, comparison among the coating matrix tested", "setting": "adult KSCs [1]; overall", "value": "performed better functions compared with MAT and PDL"},
      {"measurement": "long-term expansion of adult KSCs in vitro", "setting": "adult KSCs [2]", "value": "supported the long-term expansion of adult KSCs in vitro"},
      {"measurement": "proliferation of adult KSCs (population doubling) compared with blank", "setting": "adult KSCs [2]; continuously passaged", "value": "could promote the proliferation of adult KSCs"}
    ]},
    {"compound": "C[C@@H](N)[C@H]1CC[C@H](C(=O)Nc2ccncc2)CC1", "note": "[Y-27632]", "values": [
      {"measurement": "concentration that could promote adult KSCs proliferation (EdU/p63 ratio)", "setting": "adult KSCs [3]", "value": "at least 1 μM"},
      {"measurement": "change of the total cell number (p63 count) compared with the blank", "setting": "adult KSCs [3]; at least 1 μM (such as 1-10 μM), KSFX-free basal medium", "value": "two-fold change"}
    ]},
    {"compound": "[Ca+2]", "note": "[calcium]", "values": [
      {"measurement": "passages after which adult KSCs stopped growing", "setting": "adult KSCs [4]; 0 mM calcium (withdraw of calcium), KSFX-free basal medium", "value": 3, "unit": "passages"},
      {"measurement": "proliferation rate of adult KSCs", "setting": "adult KSCs [4]; 0.05 mM calcium, later passages", "value": "started to grow slower later"},
      {"measurement": "proliferation of adult KSCs", "setting": "adult KSCs [4]; 0.5 mM calcium, KSFX-free basal medium", "value": "could proliferate longer, with more cell-to-cell connections"},
      {"measurement": "differentiation of adult KSCs", "setting": "adult KSCs [4]; [5]", "value": "most of cells had differentiated with the collapsed nucleus"},
      {"measurement": "passages after which adult KSCs stopped growing", "setting": "adult KSCs [4]; [5]", "value": 5, "unit": "passages"},
      {"measurement": "calcium concentration that can better support the long-term expansion of adult KSCs", "setting": "adult KSCs [4]; KSFX-free basal medium, 10 passages", "value": "0.1 to 1.0", "unit": "mM"}
    ]},
    {"compound": "Cc1cccc(-c2nn(C(=S)Nc3ccccc3)cc2-c2ccnc3ccccc23)n1", "note": "[A 83-01]", "values": [
      {"measurement": "concentration that could promote adult KSCs proliferation (EdU/p63 ratio)", "setting": "adult KSCs [3]", "value": "at least 0.5 μM"}
    ]}
  ]
}
